Conditions: non-opioid-dependent patients; intravenous administration of 200 mg morphine

C=CCN1CC[C@]23c4c5ccc(O)c4O[C@H]2C(=O)CC[C@@]3(O)[C@H]1C5 [naloxone, (5R,9R,13S,14S)-17-allyl-3,14-dihydroxy-4,5-epoxymorphinan-6-on]
naloxone sufficient to trigger discrete withdrawal symptoms: 0.4 mg
